The values that follow come from patent EP0590919A1, “Therapeutic agents for parkinson's disease” (KYOWA HAKKO KOGYO CO., LTD., priority 1992, dated 1994).

Structures are written as SMILES.

For data set [1], the system named is Haloperidol-Induced Catalepsy. In words: Effect on haloperidol-induced catalepsy. In kind it is in vivo, mice. The settings on record: for ED50: Mus musculus, 1 h, ten mice at each dose, effective = catalepsy score 3 or less, Probit analysis, oral, read-out: ED₅₀; for Number of the Animals Showing Remission: of five mice, catalepsy score not more than 4 points; for Number of the Animals Showing Remission / Remission Rate (%) / Total Score: 10 mg/kg orally; for Remission Rate (%): rate of decrease in total score based on control group; for Total Score: total catalepsy score of five mice (25 points at the full), haloperidol 1.0 mg/kg i.p. On the procedure:
Haloperidol (Janssen Pharmaceutica) suspended in 0.3% CMC was intraperitoneally administered to each mouse at a dose of 1.0 mg/kg. Test compounds were suspended in 0.3% CMC or in injectable distilled water (Otsuka Pharmaceutical Co., Ltd.) containing Tween 80. L-DOPA (Kyowa Hakko Kogyo Co., Ltd.) and benserazide hydrochloride (Kyowa Hakko Kogyo Co., Ltd.) were suspended in 0.3% CMC. One hour after the haloperidol administration, the test compound suspensions and the control suspension [injectable distilled water (Otsuka Pharmaceutical Co., Ltd.) containing Tween 80] containing no test compound were orally administered to separate groups of the mice (0.1 ml per 10 g of body weight). One hour after the administration of the test compound, the forelimbs of each mouse and subsequently the hindlimbs of the same mouse were placed on a 4.5 cm-high, 1.0 cm-wide bar and catalepsy was estimated. […] The catalepsy score and the standard of judgment are shown below. […] The number of the animals showing remission against catalepsy is the number of the mice for which the catalepsy score was not more than 4 points. […] The ED₅₀ values were calculated by Probit analysis.

The subject of another data set is dd-strain male mice. The data set is described as follows: Acute toxicity test (minimum lethal dose, oral). In kind it is in vivo. The following applies: oral administration, three mice per group, mortality seven days after administration. On the procedure:
Test compounds were orally administered to groups of dd-strain male mice weighing 20 ± 1 g, each group consisting of three mice. Seven days after the administration, minimum lethal dose (MLD) of each compound was determined by observing the mortality.

A further data set deals with T1, A₂ receptor (Rattus norvegicus, UniProt P30543).
T1 construct: from tissue; host or cells: rat corpus striatum membrane preparation
T1 sequence (P30543 whole entry): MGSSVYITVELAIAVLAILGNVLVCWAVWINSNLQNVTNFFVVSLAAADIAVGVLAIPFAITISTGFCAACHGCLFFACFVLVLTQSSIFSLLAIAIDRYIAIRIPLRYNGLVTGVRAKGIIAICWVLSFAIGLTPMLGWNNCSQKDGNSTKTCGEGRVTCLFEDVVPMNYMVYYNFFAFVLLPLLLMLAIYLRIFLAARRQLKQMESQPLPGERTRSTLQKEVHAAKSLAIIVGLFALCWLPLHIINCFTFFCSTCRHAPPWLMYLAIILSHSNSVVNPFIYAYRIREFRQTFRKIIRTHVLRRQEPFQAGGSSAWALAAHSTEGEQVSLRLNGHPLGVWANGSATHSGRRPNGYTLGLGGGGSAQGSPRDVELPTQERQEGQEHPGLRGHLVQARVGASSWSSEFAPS
In words: Adenosine A₂ receptor binding test (³H-NECA binding). The settings on record: ³H-NECA binding, rat corpus striatum, read-out: Inhibition (%) A₂ Receptor; for inhibition at 100 µM: 10⁻⁴M; for inhibition at 10 µM: 10⁻⁵M; for inhibition at 1 µM: 10⁻⁶M; for inhibition at 0.1 µM: 10⁻⁷M. The protocol: The similar procedure as in the above-described adenosine A₁ receptor binding test was repeated using rat corpus striatum to obtain the final precipitate of the tissue thereof. The precipitate was suspended in 50 mM Tris HCl buffer containing 10 mM magnesium chloride and 0.02 unit/mg tissue of adenosine deaminase (manufactured by Sigma Co.) to give a tissue concentration of 5 mg (wet weight)/ml.
The mixture solution was allowed to stand at 25°C for 120 minutes and then treated in the same manner as in the adenosine A₁ receptor binding test to determine the radioactivity bound to the A₂ receptors.
The inhibition rate of the test compound against the binding of A₂ receptor (³H-NECA binding) was calculated by the following equation: [formula] [Notes] • 1.

With `CCn1c(=O)c2c(nc(/C=C/c3ccc(OC)cc3OC)n2C)n(CC)c1=O` [Compound 6, (E)-8-(2,4-Dimethoxystyryl)-1,3-diethyl-7-methylxanthine], in data set [1], the ED50 is 1.7 mg/kg, the “Number of the Animals Showing Remission” value was determined as 5, the “Remission Rate (%)” value is reported as 76% and the “Total Score” value is reported as 6. In addition, the MLD with dd-strain male mice is above 300 mg/kg.
On to `CCn1c(=O)c2c(nc(/C=C/c3cc(C)c(OC)cc3C)n2C)n(CC)c1=O` [Compound 12, (E)-1,3-Diethyl-8-(4-methoxy-2,5-dimethylstyryl)-7-methylxanthine], for which, in data set [1], the ED50 is 2.7 mg/kg, the “Number of the Animals Showing Remission” value is on record as 5, the “Remission Rate (%)” value turned out to be 52% and the “Total Score” value came to 12. This compound gave an MLD in the data set with dd-strain male mice above 300 mg/kg.
On to `COc1ccc(/C=C/c2nc3c([nH]2)c(=O)n(C)c(=O)n3C)c(OC)c1C` [Compound 31, (E)-8-(2,4-Dimethoxy-3-methylstyryl)theophylline], for which, in data set [1], the “Number of the Animals Showing Remission” value is on record as 4, the “Remission Rate (%)” value is 36% and the “Total Score” value is 16. For the same compound, the MLD with dd-strain male mice is above 100 mg/kg. In addition, at A₂ receptor, the inhibition at 100 µM is 79%, the inhibition at 10 µM worked out at 89%, the inhibition at 1 µM came out at 82% and the inhibition at 0.1 µM was 74%.
Turning to `COc1ccc(/C=C/c2nc3c(c(=O)n(C)c(=O)n3C)n2C)c(OC)c1C` [Compound 32, (E)-8-(2,4-Dimethoxy-3-methylstyryl)caffeine], in data set [1], the “Number of the Animals Showing Remission” value came out at 4, the “Remission Rate (%)” value was determined as 32% and the “Total Score” value amounted to 17. In the data set with dd-strain male mice, this compound had an MLD above 100 mg/kg. Besides, on A₂ receptor, the inhibition at 100 µM was 98%, the inhibition at 10 µM was 82%, the inhibition at 1 µM stood at 84% and the inhibition at 0.1 µM came out at 83%.
In the case of `CCn1c(=O)c2c(nc(/C=C/c3cc(C)ccc3C)n2C)n(CC)c1=O` [Compound 34, (E)-8-(2,5-Dimethylstyryl)-1,3-diethyl-7-methylxanthine], in data set [1], the ED50 is 2.6 mg/kg, the “Number of the Animals Showing Remission” value was determined as 5, the “Remission Rate (%)” value is on record as 68% and the “Total Score” value is 8. Besides, in the data set with dd-strain male mice, the MLD was above 300 mg/kg. On A₂ receptor, the inhibition at 100 µM turned out to be 94%, the inhibition at 10 µM amounted to 90%, the inhibition at 1 µM was determined as 93% and the inhibition at 0.1 µM was determined as 86%.
For the compound `CCOc1ccc(/C=C/c2nc3c(c(=O)n(CC)c(=O)n3CC)n2C)cc1` [Compound 36, (E)-8-(4-Ethoxystyryl)-1,3-diethyl-7-methylxanthine], in data set [1], the ED50 worked out at 1.5 mg/kg, the “Number of the Animals Showing Remission” value turned out to be 5, the “Remission Rate (%)” value is reported as 76% and the “Total Score” value was determined as 6. For the same compound, the MLD in the data set on dd-strain male mice is on record as above 300 mg/kg. Moreover, on A₂ receptor, the inhibition at 1 µM turned out to be 101% and the inhibition at 0.1 µM was 71%.
Take `CCCOc1ccc(/C=C/c2nc3c(c(=O)n(CC)c(=O)n3CC)n2C)cc1` [Compound 38, (E)-1,3-Diethyl-7-methyl-8-(4-propoxystyryl)xanthine]: in data set [1], the ED50 was determined as 2.5 mg/kg, the “Number of the Animals Showing Remission” value is listed as 4, the “Remission Rate (%)” value was 68% and the “Total Score” value turned out to be 8. The MLD in the data set with dd-strain male mice is recorded as above 300 mg/kg. Also, on A₂ receptor, the inhibition at 1 µM was 94% and the inhibition at 0.1 µM was 71%.
Regarding `CCn1c(=O)c2c(nc(/C=C/c3ccc(OC)c(OC)c3Cl)n2C)n(CC)c1=O` [Compound 50, (E)-8-(2-Chloro-3,4-dimethoxystyryl)-1,3-diethyl-7-methylxanthine], in data set [1], the ED50 was determined as 3.8 mg/kg, the “Number of the Animals Showing Remission” value is reported as 4, the “Remission Rate (%)” value worked out at 24% and the “Total Score” value is 19. The MLD in the data set on dd-strain male mice was above 300 mg/kg. For the same compound, on A₂ receptor, the inhibition at 100 µM stood at 93%, the inhibition at 10 µM worked out at 88%, the inhibition at 1 µM was determined as 95% and the inhibition at 0.1 µM is 88%.
Take `COc1ccc(/C=C/c2nc3c(c(=O)n(C)c(=O)n3C)n2C)c(Cl)c1OC` [Compound 52, (E)-8-(2-Chloro-3,4-dimethoxystyryl)caffeine]: in data set [1], the ED50 amounted to 1.7 mg/kg, the “Number of the Animals Showing Remission” value is recorded as 5, the “Remission Rate (%)” value is 60% and the “Total Score” value worked out at 10. The compound also returned an MLD with dd-strain male mice above 300 mg/kg. Moreover, at A₂ receptor, the inhibition at 100 µM stood at 83%, the inhibition at 10 µM came to 81%, the inhibition at 1 µM was 88% and the inhibition at 0.1 µM came out at 78%.
With `CCn1c(=O)c2c(nc(/C=C/c3ccc(F)c(F)c3)n2C)n(CC)c1=O` [Compound 54, (E)-8-(3,4-Difluorostyryl)-1,3-diethyl-7-methylxanthine], in data set [1], the “Number of the Animals Showing Remission” value was determined as 5, the “Remission Rate (%)” value is on record as 28% and the “Total Score” value stood at 18. In addition, the MLD in the data set on dd-strain male mice is on record as above 300 mg/kg. Further, at A₂ receptor, the inhibition at 100 µM was found to be 96%, the inhibition at 10 µM amounted to 95%, the inhibition at 1 µM came out at 94% and the inhibition at 0.1 µM was determined as 63%.
The compound `CCn1c(=O)c2[nH]c(/C=C/c3ccc(OC)c(Br)c3)nc2n(CC)c1=O` [Compound 55, (E)-8-(3-Bromo-4-methoxystyryl)-1,3-diethylxanthine] showed an MLD with dd-strain male mice above 100 mg/kg. Further, at A₂ receptor, the inhibition at 100 µM is 81%, the inhibition at 10 µM was 77%, the inhibition at 1 µM was determined as 65% and the inhibition at 0.1 µM turned out to be 56%.
Take `CCn1c(=O)c2c(nc(/C=C/c3ccc(OC)c(Br)c3)n2C)n(CC)c1=O` [Compound 56, (E)-8-(3-Bromo-4-methoxystyryl)-1,3-diethyl-7-methylxanthine]: in data set [1], the “Number of the Animals Showing Remission” value is 5, the “Remission Rate (%)” value worked out at 44% and the “Total Score” value was found to be 14. The MLD in the data set with dd-strain male mice is recorded as above 100 mg/kg. Moreover, at A₂ receptor, the inhibition at 100 µM is 99%, the inhibition at 10 µM stood at 97%, the inhibition at 1 µM was found to be 92% and the inhibition at 0.1 µM was determined as 74%.
In the data set with dd-strain male mice, `COc1ccc(/C=C/c2nc3c(c(=O)n(C)c(=O)n3C)n2C)cc1Br` [Compound 58, (E)-8-(3-Bromo-4-methoxystyryl)caffeine] came in with an MLD above 300 mg/kg. In addition, on A₂ receptor, the inhibition at 100 µM is 78% and the inhibition at 10 µM stood at 84%.
`CCn1c(=O)c2c(nc(/C=C/c3cc(OC)c(OC)cc3Br)n2C)n(CC)c1=O` [Compound 60, (E)-8-(2-Bromo-4,5-dimethoxystyryl)-1,3-diethyl-7-methylxanthine] came in with an MLD in the data set on dd-strain male mice above 100 mg/kg. Besides, at A₂ receptor, the inhibition at 100 µM worked out at 84% and the inhibition at 10 µM was 75%.
As to `CCn1c(=O)c2[nH]c(/C=C/c3cccc(OC)c3[N+](=O)[O-])nc2n(CC)c1=O` [Compound 63, (E)-1,3-Diethyl-8-(3-methoxy-2-nitrostyryl)xanthine], in data set [1], the “Number of the Animals Showing Remission” value worked out at 3, the “Remission Rate (%)” value was 32% and the “Total Score” value stood at 17. Moreover, in the data set with dd-strain male mice, the MLD is above 300 mg/kg. For the same compound, at A₂ receptor, the inhibition at 100 µM was determined as 79% and the inhibition at 10 µM is 74%.
With `CCn1c(=O)c2[nH]c(/C=C/c3cccc(F)c3)nc2n(CC)c1=O` [Compound 65, (E)-1,3-Diethyl-8-(3-fluorostyryl)xanthine], the MLD in the data set with dd-strain male mice is listed as above 100 mg/kg. Besides, on A₂ receptor, the inhibition at 1 µM worked out at 64% and the inhibition at 0.1 µM was determined as 64%.
Turning to `CCn1c(=O)c2c(nc(/C=C/c3cccc(F)c3)n2C)n(CC)c1=O` [Compound 66, (E)-1,3-Diethyl-8-(3-fluorostyryl)-7-methylxanthine], the MLD with dd-strain male mice is listed as above 300 mg/kg. Moreover, at A₂ receptor, the inhibition at 1 µM was found to be 93% and the inhibition at 0.1 µM was found to be 78%.
`CCn1c(=O)c2[nH]c(/C=C/c3ccc(N(C)C)cc3)nc2n(CC)c1=O` [Compound 99, (E)-8-[4-(N,N-Dimethylamino)styryl]-1,3-diethylxanthine] registered an MLD with dd-strain male mice above 100 mg/kg. Besides, on A₂ receptor, the inhibition at 1 µM came out at 64% and the inhibition at 0.1 µM amounted to 25%.
